Literature values, collected in article PMC9366781 (ACS Omega, 2022).
Like-named read-outs stand apart in the source and are kept apart here.

Test system: EGFR

Tyr-His-Trp-Tyr-Gly-Tyr-Thr-Pro-Gln-Asn-Val-Ile [GE11]
affinity to the EGFR (different EGFR-positive cell lines (among these A431, MDA-MB-468, U87MG)): more than 1 mM

hEGF: endogenous EGFR ligand human epidermal growth factor, internal reference standard
affinity to the EGFR (same study as GE11 monomer): 5.1 ± 0.9 nM
